SMILES strings stand for the structures. Positions of bridges follow the written chain, without caps; N, C: chain ends. Non-standard residues stand in square brackets, D forms with d. Residues, ends and D or L forms follow the SMILES beside them. Phe(4-CF3) = N[C@@H](Cc1ccc(C(F)(F)F)cc1)C(=O)O; Phe(4-tBu) = CC(C)(C)c1ccc(C[C@H](N)C(=O)O)cc1; Phe(4-F) = N[C@@H](Cc1ccc(F)cc1)C(=O)O; Phe(4-I) = N[C@@H](Cc1ccc(I)cc1)C(=O)O; Phe(4-Me) = Cc1ccc(C[C@H](N)C(=O)O)cc1; NMeL = CN[C@@H](CC(C)C)C(=O)O; NMeV = CN[C@H](C(=O)O)C(C)C

Assay in all cases: cell-based
Assay [1] deals with hNav1.7 (Homo sapiens, UniProt Q15858). It counts as cell-based. The conditions noted are these: IonWorks Quattro, use-dependent protocol, hNav1.7; read-out: IWQ Use Nav1.7. (In general: The patch-clamp technique gives a direct electrical read-out from membranes.)
Sequence of hNav1.7 (Q15858 whole entry, looked up): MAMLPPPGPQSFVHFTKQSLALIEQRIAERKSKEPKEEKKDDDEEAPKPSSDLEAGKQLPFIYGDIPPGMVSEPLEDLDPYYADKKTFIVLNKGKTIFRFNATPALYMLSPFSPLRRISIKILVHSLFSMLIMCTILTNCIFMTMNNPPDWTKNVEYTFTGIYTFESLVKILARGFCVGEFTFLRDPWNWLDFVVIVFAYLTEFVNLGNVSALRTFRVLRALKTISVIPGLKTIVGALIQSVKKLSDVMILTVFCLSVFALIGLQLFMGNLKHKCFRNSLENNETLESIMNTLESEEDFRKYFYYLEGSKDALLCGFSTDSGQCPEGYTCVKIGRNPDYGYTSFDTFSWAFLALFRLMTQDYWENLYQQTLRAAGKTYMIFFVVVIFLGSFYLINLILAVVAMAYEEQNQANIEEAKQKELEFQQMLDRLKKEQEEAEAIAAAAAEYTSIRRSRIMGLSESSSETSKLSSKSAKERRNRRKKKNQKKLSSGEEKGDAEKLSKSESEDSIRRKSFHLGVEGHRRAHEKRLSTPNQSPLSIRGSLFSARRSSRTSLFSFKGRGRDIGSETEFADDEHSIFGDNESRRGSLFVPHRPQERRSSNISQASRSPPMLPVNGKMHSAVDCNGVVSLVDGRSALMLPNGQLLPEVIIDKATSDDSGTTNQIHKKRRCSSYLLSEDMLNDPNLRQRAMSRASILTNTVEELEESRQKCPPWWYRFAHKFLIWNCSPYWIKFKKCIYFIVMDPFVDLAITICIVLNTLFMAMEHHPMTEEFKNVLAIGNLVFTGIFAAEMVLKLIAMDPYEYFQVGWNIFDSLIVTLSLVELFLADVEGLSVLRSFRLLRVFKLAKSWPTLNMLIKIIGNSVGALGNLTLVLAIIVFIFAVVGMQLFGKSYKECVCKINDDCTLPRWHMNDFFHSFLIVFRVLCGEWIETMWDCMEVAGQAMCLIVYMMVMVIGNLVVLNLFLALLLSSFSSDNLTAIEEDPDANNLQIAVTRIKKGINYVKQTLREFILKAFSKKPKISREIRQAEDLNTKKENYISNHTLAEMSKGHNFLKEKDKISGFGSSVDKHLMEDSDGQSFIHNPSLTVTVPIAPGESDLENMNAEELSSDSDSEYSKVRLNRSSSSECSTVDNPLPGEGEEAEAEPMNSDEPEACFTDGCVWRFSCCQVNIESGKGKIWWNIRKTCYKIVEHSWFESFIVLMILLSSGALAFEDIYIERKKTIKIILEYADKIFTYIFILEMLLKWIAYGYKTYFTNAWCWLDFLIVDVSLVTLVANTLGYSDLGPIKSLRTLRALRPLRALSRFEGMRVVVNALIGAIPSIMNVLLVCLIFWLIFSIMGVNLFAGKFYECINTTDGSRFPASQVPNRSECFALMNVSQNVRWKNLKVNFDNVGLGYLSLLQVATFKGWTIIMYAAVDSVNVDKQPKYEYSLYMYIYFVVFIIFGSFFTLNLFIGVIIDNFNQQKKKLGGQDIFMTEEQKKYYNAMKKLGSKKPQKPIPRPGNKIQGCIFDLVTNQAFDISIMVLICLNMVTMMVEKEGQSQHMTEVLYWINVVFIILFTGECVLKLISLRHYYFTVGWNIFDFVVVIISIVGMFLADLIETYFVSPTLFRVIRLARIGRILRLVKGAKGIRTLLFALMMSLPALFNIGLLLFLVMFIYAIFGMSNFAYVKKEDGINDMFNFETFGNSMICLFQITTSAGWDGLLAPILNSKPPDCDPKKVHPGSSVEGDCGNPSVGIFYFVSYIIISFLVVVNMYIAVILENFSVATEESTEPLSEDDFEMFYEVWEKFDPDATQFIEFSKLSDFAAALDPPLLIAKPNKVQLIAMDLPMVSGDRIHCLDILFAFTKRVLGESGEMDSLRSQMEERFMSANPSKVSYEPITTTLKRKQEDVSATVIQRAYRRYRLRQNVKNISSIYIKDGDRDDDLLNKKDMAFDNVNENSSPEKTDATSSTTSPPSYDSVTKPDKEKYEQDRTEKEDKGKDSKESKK
Assay [2] concerns the target hNav1.5 (Homo sapiens, UniProt Q14524). The conditions noted are these: IonWorks Quattro, use-dependent protocol, hNav1.5; read-out: IWQ Use Nav1.5.
For assay [3], the target named is hNav1.3 (Homo sapiens, UniProt Q9NY46). Conditions: IonWorks Quattro, use-dependent protocol, hNav1.3; read-out: IWQ Use Nav1.3.

Sequence of hNav1.5 (Q14524 whole entry, looked up): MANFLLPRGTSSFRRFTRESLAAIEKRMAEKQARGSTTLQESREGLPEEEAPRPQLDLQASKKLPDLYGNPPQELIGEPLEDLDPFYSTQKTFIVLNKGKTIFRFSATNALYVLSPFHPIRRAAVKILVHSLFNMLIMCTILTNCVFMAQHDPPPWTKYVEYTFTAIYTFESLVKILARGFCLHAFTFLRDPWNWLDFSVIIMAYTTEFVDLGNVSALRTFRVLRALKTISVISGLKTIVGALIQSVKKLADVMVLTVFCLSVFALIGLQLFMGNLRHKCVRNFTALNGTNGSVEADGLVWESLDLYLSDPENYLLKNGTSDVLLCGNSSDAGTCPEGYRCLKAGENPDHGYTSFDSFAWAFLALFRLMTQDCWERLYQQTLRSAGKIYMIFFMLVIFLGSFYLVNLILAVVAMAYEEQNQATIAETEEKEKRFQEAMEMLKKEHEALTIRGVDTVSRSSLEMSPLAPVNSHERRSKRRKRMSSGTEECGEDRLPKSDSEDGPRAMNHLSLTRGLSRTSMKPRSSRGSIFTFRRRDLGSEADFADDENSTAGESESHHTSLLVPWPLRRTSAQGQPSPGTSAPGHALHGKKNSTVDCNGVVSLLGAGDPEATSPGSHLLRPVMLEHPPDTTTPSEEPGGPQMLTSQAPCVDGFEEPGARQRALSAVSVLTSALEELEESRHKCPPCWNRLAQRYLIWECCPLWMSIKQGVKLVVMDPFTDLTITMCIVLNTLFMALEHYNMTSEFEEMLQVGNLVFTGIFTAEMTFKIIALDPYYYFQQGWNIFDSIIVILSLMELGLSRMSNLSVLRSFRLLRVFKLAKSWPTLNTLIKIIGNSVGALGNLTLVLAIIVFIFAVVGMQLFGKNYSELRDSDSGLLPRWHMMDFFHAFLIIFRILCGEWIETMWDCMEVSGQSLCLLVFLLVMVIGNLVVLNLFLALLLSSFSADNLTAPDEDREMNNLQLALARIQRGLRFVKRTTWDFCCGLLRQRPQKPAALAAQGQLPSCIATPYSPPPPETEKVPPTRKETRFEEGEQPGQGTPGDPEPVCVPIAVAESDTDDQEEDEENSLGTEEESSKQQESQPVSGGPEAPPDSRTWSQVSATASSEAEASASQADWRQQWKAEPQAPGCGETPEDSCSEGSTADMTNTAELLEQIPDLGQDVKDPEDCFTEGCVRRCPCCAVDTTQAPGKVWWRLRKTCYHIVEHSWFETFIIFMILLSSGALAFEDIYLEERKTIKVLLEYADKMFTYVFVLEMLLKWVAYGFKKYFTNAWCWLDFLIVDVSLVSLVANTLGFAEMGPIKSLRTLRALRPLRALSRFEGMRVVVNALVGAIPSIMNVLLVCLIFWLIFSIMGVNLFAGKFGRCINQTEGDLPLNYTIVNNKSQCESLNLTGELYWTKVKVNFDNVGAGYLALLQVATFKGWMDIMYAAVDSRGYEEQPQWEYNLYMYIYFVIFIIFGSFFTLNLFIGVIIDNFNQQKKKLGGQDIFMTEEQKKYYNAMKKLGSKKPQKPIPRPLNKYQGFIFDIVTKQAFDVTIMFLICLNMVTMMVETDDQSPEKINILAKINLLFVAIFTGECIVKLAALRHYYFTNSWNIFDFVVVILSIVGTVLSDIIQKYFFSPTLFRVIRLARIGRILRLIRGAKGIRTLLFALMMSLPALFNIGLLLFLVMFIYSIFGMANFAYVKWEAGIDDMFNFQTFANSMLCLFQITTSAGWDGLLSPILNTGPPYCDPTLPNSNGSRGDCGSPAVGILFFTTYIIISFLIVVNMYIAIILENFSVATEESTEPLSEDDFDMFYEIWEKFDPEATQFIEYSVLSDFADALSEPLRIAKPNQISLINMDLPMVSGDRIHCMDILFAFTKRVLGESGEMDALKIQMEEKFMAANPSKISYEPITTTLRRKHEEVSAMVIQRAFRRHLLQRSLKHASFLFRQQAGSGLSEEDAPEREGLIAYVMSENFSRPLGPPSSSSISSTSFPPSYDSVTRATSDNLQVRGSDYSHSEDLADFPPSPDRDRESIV

Regarding `CC[C@H](C)[C@@H]1NC(=O)[C@@H]2CSSC[C@@H]3NC(=O)[C@H](C(C)C)NC(=O)[C@H](CC(C)C)NC(=O)[C@H](CC(N)=O)NC(=O)[C@@H]4CCCN4C(=O)[C@H](CCCNC(=N)N)NC(=O)[C@H](CSSC[C@H](NC(=O)[C@@H](N)CC(=O)O)C(=O)N[C@@H](CC(C)C)C(=O)NCC(=O)N[C@@H](Cc4ccc(I)cc4)C(=O)N[C@@H](Cc4ccccc4)C(=O)N[C@@H](CCCNC(=N)N)C(=O)N[C@@H](CCCCN)C(=O)N2)NC(=O)[C@H](CSSC[C@@H](C(=O)N[C@@H](CCCCN)C(=O)N[C@@H](Cc2ccc(O)cc2)C(=O)N[C@H](C(=O)N[C@@H](Cc2ccccc2)C(N)=O)C(C)C)NC(=O)[C@H](Cc2c[nH]c4ccccc24)NC(=O)[C@H](CCCCN)NC(=O)[C@H](Cc2c[nH]cn2)NC(=O)[C@H]([C@@H](C)O)NC(=O)[C@H](CCCNC(=N)N)NC(=O)[C@H](CO)NC3=O)NC(=O)[C@H](CCCCN)NC(=O)[C@H](CC(=O)O)NC(=O)[C@H](CC(N)=O)NC(=O)[C@H](CC(=O)O)NC(=O)[C@@H]2CCCN2C1=O` [compound 622] (H-DCLG[Phe(4-I)]FRKCIPDNDKCCRPNLVCSRTHKWCKYVF-NH2; disulfide 2-17, 9-23, 16-30), the values for the IC50 in assay [1], in assay [2] and in assay [3] were 12.3 µM, 12.9 µM and 21 µM, respectively.

For the molecule `CC[C@H](C)[C@@H]1NC(=O)[C@@H]2CSSC[C@@H]3NC(=O)[C@H](C(C)C)NC(=O)[C@H](CC(C)C)NC(=O)[C@H](CC(N)=O)NC(=O)[C@@H]4CCCN4C(=O)[C@H](CCCNC(=N)N)NC(=O)[C@H](CSSC[C@H](NC(=O)[C@@H](N)CC(=O)O)C(=O)N[C@@H](CC(C)C)C(=O)NCC(=O)N[C@@H](Cc4ccc(C(F)(F)F)cc4)C(=O)N[C@@H](Cc4ccccc4)C(=O)N[C@@H](CCCNC(=N)N)C(=O)N[C@@H](CCCCN)C(=O)N2)NC(=O)[C@H](CSSC[C@@H](C(=O)N[C@@H](CCCCN)C(=O)N[C@@H](Cc2ccc(O)cc2)C(=O)N[C@H](C(=O)N[C@@H](Cc2ccccc2)C(N)=O)C(C)C)NC(=O)[C@H](Cc2c[nH]c4ccccc24)NC(=O)[C@H](CCCCN)NC(=O)[C@H](Cc2c[nH]cn2)NC(=O)[C@H]([C@@H](C)O)NC(=O)[C@H](CCCNC(=N)N)NC(=O)[C@H](CO)NC3=O)NC(=O)[C@H](CCCCN)NC(=O)[C@H](CC(=O)O)NC(=O)[C@H](CC(N)=O)NC(=O)[C@H](CC(=O)O)NC(=O)[C@@H]2CCCN2C1=O` [compound 623] (H-DCLG[Phe(4-CF3)]FRKCIPDNDKCCRPNLVCSRTHKWCKYVF-NH2; disulfide 2-17, 9-23, 16-30), the IC50 was 0.096 µM in assay [1], 7.1 µM in assay [2] and 0.013 µM in assay [3].

Turning to `CC[C@H](C)[C@@H]1NC(=O)[C@@H]2CSSC[C@@H]3NC(=O)[C@H](C(C)C)NC(=O)[C@H](CC(C)C)NC(=O)[C@H](CC(N)=O)NC(=O)[C@@H]4CCCN4C(=O)[C@H](CCCNC(=N)N)NC(=O)[C@H](CSSC[C@H](NC(=O)[C@@H](N)CC(=O)O)C(=O)N[C@@H](CC(C)C)C(=O)NCC(=O)N[C@@H](Cc4ccc(F)cc4)C(=O)N[C@@H](Cc4ccccc4)C(=O)N[C@@H](CCCNC(=N)N)C(=O)N[C@@H](CCCCN)C(=O)N2)NC(=O)[C@H](CSSC[C@@H](C(=O)N[C@@H](CCCCN)C(=O)N[C@@H](Cc2ccc(O)cc2)C(=O)N[C@H](C(=O)N[C@@H](Cc2ccccc2)C(N)=O)C(C)C)NC(=O)[C@H](Cc2c[nH]c4ccccc24)NC(=O)[C@H](CCCCN)NC(=O)[C@H](Cc2c[nH]cn2)NC(=O)[C@H]([C@@H](C)O)NC(=O)[C@H](CCCNC(=N)N)NC(=O)[C@H](CO)NC3=O)NC(=O)[C@H](CCCCN)NC(=O)[C@H](CC(=O)O)NC(=O)[C@H](CC(N)=O)NC(=O)[C@H](CC(=O)O)NC(=O)[C@@H]2CCCN2C1=O` [compound 624] (H-DCLG[Phe(4-F)]FRKCIPDNDKCCRPNLVCSRTHKWCKYVF-NH2; disulfide 2-17, 9-23, 16-30), the IC50 in assay [1] worked out at 0.06 µM; in assay [2] it was 11.7 µM; in assay [3] it was 0.02 µM.

With `CC[C@H](C)[C@@H]1NC(=O)[C@@H]2CSSC[C@@H]3NC(=O)[C@H](C(C)C)NC(=O)[C@H](CC(C)C)NC(=O)[C@H](CC(N)=O)NC(=O)[C@@H]4CCCN4C(=O)[C@H](CCCNC(=N)N)NC(=O)[C@H](CSSC[C@H](NC(=O)[C@@H](N)CC(=O)O)C(=O)N[C@@H](CC(C)C)C(=O)NCC(=O)N[C@@H](Cc4ccc(C)cc4)C(=O)N[C@@H](Cc4ccccc4)C(=O)N[C@@H](CCCNC(=N)N)C(=O)N[C@@H](CCCCN)C(=O)N2)NC(=O)[C@H](CSSC[C@@H](C(=O)N[C@@H](CCCCN)C(=O)N[C@@H](Cc2ccc(O)cc2)C(=O)N[C@H](C(=O)N[C@@H](Cc2ccccc2)C(N)=O)C(C)C)NC(=O)[C@H](Cc2c[nH]c4ccccc24)NC(=O)[C@H](CCCCN)NC(=O)[C@H](Cc2c[nH]cn2)NC(=O)[C@H]([C@@H](C)O)NC(=O)[C@H](CCCNC(=N)N)NC(=O)[C@H](CO)NC3=O)NC(=O)[C@H](CCCCN)NC(=O)[C@H](CC(=O)O)NC(=O)[C@H](CC(N)=O)NC(=O)[C@H](CC(=O)O)NC(=O)[C@@H]2CCCN2C1=O` [compound 625] (H-DCLG[Phe(4-Me)]FRKCIPDNDKCCRPNLVCSRTHKWCKYVF-NH2; disulfide 2-17, 9-23, 16-30), the IC50 in assay [1] stood at 0.063 µM; in assay [2] it was 6.5 µM; in assay [3], 0.051 µM.

As for `CC[C@H](C)[C@@H]1NC(=O)[C@@H]2CSSC[C@@H]3NC(=O)[C@H](C(C)C)NC(=O)[C@H](CC(C)C)NC(=O)[C@H](CC(N)=O)NC(=O)[C@@H]4CCCN4C(=O)[C@H](CCCNC(=N)N)NC(=O)[C@H](CSSC[C@H](NC(=O)[C@@H](N)CC(=O)O)C(=O)N[C@@H](CC(C)C)C(=O)NCC(=O)N[C@@H](Cc4ccc(C(C)(C)C)cc4)C(=O)N[C@@H](Cc4ccccc4)C(=O)N[C@@H](CCCNC(=N)N)C(=O)N[C@@H](CCCCN)C(=O)N2)NC(=O)[C@H](CSSC[C@@H](C(=O)N[C@@H](CCCCN)C(=O)N[C@@H](Cc2ccc(O)cc2)C(=O)N[C@H](C(=O)N[C@@H](Cc2ccccc2)C(N)=O)C(C)C)NC(=O)[C@H](Cc2c[nH]c4ccccc24)NC(=O)[C@H](CCCCN)NC(=O)[C@H](Cc2c[nH]cn2)NC(=O)[C@H]([C@@H](C)O)NC(=O)[C@H](CCCNC(=N)N)NC(=O)[C@H](CO)NC3=O)NC(=O)[C@H](CCCCN)NC(=O)[C@H](CC(=O)O)NC(=O)[C@H](CC(N)=O)NC(=O)[C@H](CC(=O)O)NC(=O)[C@@H]2CCCN2C1=O` [compound 626] (H-DCLG[Phe(4-tBu)]FRKCIPDNDKCCRPNLVCSRTHKWCKYVF-NH2; disulfide 2-17, 9-23, 16-30), the IC50 in assay [1] turned out to be 0.052 µM; in assay [2], 4.7 µM; in assay [3], 0.021 µM.

With `CC[C@H](C)[C@@H]1NC(=O)[C@@H]2CSSC[C@@H]3NC(=O)[C@H](C(C)C)NC(=O)[C@H](CC(C)C)NC(=O)[C@H](CC(N)=O)NC(=O)[C@@H]4CCCN4C(=O)[C@H](CCCNC(=N)N)NC(=O)[C@H](CSSC[C@H](NC(=O)[C@@H](N)CC(=O)O)C(=O)N[C@@H](CC(C)C)C(=O)NCC(=O)N(C)[C@@H](C(C)C)C(=O)N[C@@H](Cc4ccccc4)C(=O)N[C@@H](CCCNC(=N)N)C(=O)N[C@@H](CCCCN)C(=O)N2)NC(=O)[C@H](CSSC[C@@H](C(=O)N[C@@H](CCCCN)C(=O)N[C@@H](Cc2ccc(O)cc2)C(=O)N[C@H](C(=O)N[C@@H](Cc2ccccc2)C(N)=O)C(C)C)NC(=O)[C@H](Cc2c[nH]c4ccccc24)NC(=O)[C@H](CCCCN)NC(=O)[C@H](Cc2c[nH]cn2)NC(=O)[C@H]([C@@H](C)O)NC(=O)[C@H](CCCNC(=N)N)NC(=O)[C@H](CO)NC3=O)NC(=O)[C@H](CCCCN)NC(=O)[C@H](CC(=O)O)NC(=O)[C@H](CC(N)=O)NC(=O)[C@H](CC(=O)O)NC(=O)[C@@H]2CCCN2C1=O` [compound 627] (H-DCLG[NMeV]FRKCIPDNDKCCRPNLVCSRTHKWCKYVF-NH2; disulfide 2-17, 9-23, 16-30), the IC50 in assay [1] worked out at 0.19 µM; in assay [2] it was 6 µM; in assay [3] it was 0.25 µM.

On to `CC[C@H](C)[C@@H]1NC(=O)[C@@H]2CSSC[C@@H]3NC(=O)[C@H](C(C)C)NC(=O)[C@H](CC(C)C)NC(=O)[C@H](CC(N)=O)NC(=O)[C@@H]4CCCN4C(=O)[C@H](CCCNC(=N)N)NC(=O)[C@H](CSSC[C@H](NC(=O)[C@@H](N)CC(=O)O)C(=O)N[C@@H](CC(C)C)C(=O)NCC(=O)N(C)[C@@H](CC(C)C)C(=O)N[C@@H](Cc4ccccc4)C(=O)N[C@@H](CCCNC(=N)N)C(=O)N[C@@H](CCCCN)C(=O)N2)NC(=O)[C@H](CSSC[C@@H](C(=O)N[C@@H](CCCCN)C(=O)N[C@@H](Cc2ccc(O)cc2)C(=O)N[C@H](C(=O)N[C@@H](Cc2ccccc2)C(N)=O)C(C)C)NC(=O)[C@H](Cc2c[nH]c4ccccc24)NC(=O)[C@H](CCCCN)NC(=O)[C@H](Cc2c[nH]cn2)NC(=O)[C@H]([C@@H](C)O)NC(=O)[C@H](CCCNC(=N)N)NC(=O)[C@H](CO)NC3=O)NC(=O)[C@H](CCCCN)NC(=O)[C@H](CC(=O)O)NC(=O)[C@H](CC(N)=O)NC(=O)[C@H](CC(=O)O)NC(=O)[C@@H]2CCCN2C1=O` [compound 628] (H-DCLG[NMeL]FRKCIPDNDKCCRPNLVCSRTHKWCKYVF-NH2; disulfide 2-17, 9-23, 16-30), for which the values for the IC50 in assay [1], in assay [2] and in assay [3] were 0.076 µM, 8.4 µM and 0.091 µM, respectively.
